# Assay results: patent US12077503B2, “Substituted cyclic amides and their use as herbicides” (FMC CORPORATION, priority 2015, dated 2024)
# What was measured:
# Assay type in all cases: in vivo
# [1] = system: ragweed (common ragweed, Ambrosia elatior); experiment: Test A preemergence; details: Ambrosia artemisiifolia, pre-emergence, 240 h, 0 to 100 scale where 0 is no effect and 100 is complete control, read-out: Ragweed plant response rating
# Outline: (§1)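 Visual injury, scored on a 0–100 scale relative to untreated controls, was recorded about 10 d after application. Treatments were a preemergence soil spray over planted seeds or a postemergence spray on plants at the one- to two-leaf stage, 2 to 10 cm tall, all in loam soil–sand blend in the greenhouse.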
# [2] = system: barnyardgrass (Echinochloa crus-galli); experiment: Test A preemergence; details: Echinochloa crus-galli, pre-emergence, 240 h, 0 to 100 scale where 0 is no effect and 100 is complete control, read-out: Barnyardgrass plant response rating
# Outline: as §1
# [3] = system: giant foxtail (Setaria faberii); experiment: Test A preemergence; details: Setaria faberi, pre-emergence, 240 h, 0 to 100 scale where 0 is no effect and 100 is complete control, read-out: Foxtail, Giant plant response rating
# Outline: as §1
# Kochia (Kochia scoparia) [4] = experiment: Test A preemergence; details: Bassia scoparia, pre-emergence, 240 h, 0 to 100 scale where 0 is no effect and 100 is complete control, read-out: Kochia plant response rating
# Outline: as §1
# [5] = system: ryegrass, Italian (Italian ryegrass, Lolium multiflorum); experiment: Test A preemergence; details: Lolium multiflorum, pre-emergence, 240 h, 0 to 100 scale where 0 is no effect and 100 is complete control, read-out: Ryegrass, Italian plant response rating
# Outline: as §1
# [6] = system: pigweed (Amaranthus retroflexus); experiment: Test A preemergence; details: Amaranthus retroflexus, pre-emergence, 240 h, 0 to 100 scale where 0 is no effect and 100 is complete control, read-out: Pigweed plant response rating
# [7] = system: sedge, umbrella (small-flower umbrella sedge, Cyperus difformis); experiment: Test B flooded paddy test; details: Cyperus difformis, 250 g ai/ha, Flood; 0 to 100 scale where 0 is no effect and 100 is complete control; read-out: Sedge, Umbrella plant response rating
# Outline: (§2)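 Percent control, visually estimated after 13–15 d in the greenhouse on a 0–100 basis, compares treated pots with untreated ones; compound was put into paddy water 3 cm above the soil when plants had two leaves.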
# [8] = system: barnyardgrass (Echinochloa crus-galli); experiment: Test B flooded paddy test; details: Echinochloa crus-galli, 250 g ai/ha, Flood; 0 to 100 scale where 0 is no effect and 100 is complete control; read-out: Barnyardgrass plant response rating
# Outline: as §2
# rice (Oryra sativa) = experiment: Test B flooded paddy test; details: Oryza sativa, 250 g ai/ha, Flood; 0 to 100 scale where 0 is no effect and 100 is complete control; read-out: Rice plant response rating
# Outline: as §2
# [9] = system: ducksalad (Heteranthera limosa); experiment: Test B flooded paddy test; details: Heteranthera limosa, 250 g ai/ha, Flood; 0 to 100 scale where 0 is no effect and 100 is complete control; read-out: Ducksalad plant response rating
# Outline: as §2
# corn (Zea mays) = experiment: Test A postemergence; details: Zea mays, post-emergence, 240 h, read-out: Corn plant response rating (0 to 100 scale)
# Outline: as §1
# [10] = system: Galium (catchweed bedstraw, Galium aparine); experiment: Test A postemergence; details: Galium, post-emergence, 240 h, read-out: Galium plant response rating (0 to 100 scale)
# Outline: as §1
# [11] = system: ragweed (common ragweed, Ambrosia elatior); experiment: Test A postemergence; details: Ambrosia artemisiifolia, post-emergence, 240 h, read-out: Ragweed plant response rating (0 to 100 scale)
# Outline: as §1
# [12] = system: wheat (Triticum aestivum); experiment: Test A postemergence; details: Triticum aestivum, post-emergence, 240 h, read-out: Wheat plant response rating (0 to 100 scale)
# Outline: as §1
# [13] = system: barnyardgrass (Echinochloa crus-galli); experiment: Test A postemergence; details: Echinochloa crus-galli, post-emergence, 240 h, read-out: Barnyardgrass plant response rating (0 to 100 scale)
# Outline: as §1
# [14] = system: giant foxtail (Setaria faberii); experiment: Test A postemergence; details: Setaria faberi, post-emergence, 240 h, read-out: Foxtail, Giant plant response rating (0 to 100 scale)
# Outline: as §1
# [15] = system: blackgrass (Alopecurus myosuroides); experiment: Test A postemergence; details: Alopecurus myosuroides, post-emergence, 240 h, read-out: Blackgrass plant response rating (0 to 100 scale)
# Outline: as §1
# Kochia (Kochia scoparia) [16] = experiment: Test A postemergence; details: Bassia scoparia, post-emergence, 240 h, read-out: Kochia plant response rating (0 to 100 scale)
# Outline: as §1
# [17] = system: ryegrass, Italian (Italian ryegrass, Lolium multiflorum); experiment: Test A postemergence; details: Lolium multiflorum, post-emergence, 240 h, read-out: Ryegrass, Italian plant response rating (0 to 100 scale)
# Outline: as §1
# [18] = system: pigweed (Amaranthus retroflexus); experiment: Test A postemergence; details: Amaranthus retroflexus, post-emergence, 240 h, read-out: Pigweed plant response rating (0 to 100 scale)
# Outline: as §1
# [19] = 125 g ai/ha, preemergence, visual injury rating, approximately 10 d
# [20] = 125 g ai/ha, postemergence, visual injury vs untreated controls after approx. 10 d, 0 = no effect, 100 = complete control
# [21] = Postemergence, 31 g ai/ha, 0 is no effect, 100 is complete control
compound,measurement,setting,value
Cc1ccc([C@H]2CN(C)C(=O)[C@@H]2C(=O)Nc2cccc(C#N)c2F)cc1 [Compound 1188],pest or weed control at 31 g/ha,"[1]; 31 g ai/ha, Preemergence",30%
same,pest or weed control at 125 g/ha,[1]; [19],70%
same,pest or weed control at 31 g/ha,"[2]; 31 g ai/ha, Preemergence",90%
same,pest or weed control at 125 g/ha,[2]; [19],100%
same,pest or weed control at 31 g/ha,"[3]; 31 g ai/ha, Preemergence",90%
same,pest or weed control at 125 g/ha,[3]; [19],100%
same,pest or weed control at 31 g/ha,"Kochia (Kochia scoparia) [4]; 31 g ai/ha, Preemergence",60%
same,pest or weed control at 125 g/ha,Kochia (Kochia scoparia) [4]; [19],80%
same,pest or weed control at 31 g/ha,"[5]; 31 g ai/ha, Preemergence",0%
same,pest or weed control at 125 g/ha,[5]; [19],60%
same,pest or weed control at 31 g/ha,"[6]; 31 g ai/ha, Preemergence",40%
same,pest or weed control at 125 g/ha,[6]; [19],80%
same,pest or weed control at 250 g/ha,[7],0%
same,pest or weed control at 250 g/ha,[8],65%
same,pest or weed control at 250 g/ha,rice (Oryra sativa),15%
same,pest or weed control at 250 g/ha,[9],100%
same,plant injury at 125 g/ha,corn (Zea mays); [20],50%
same,plant injury at 31 g/ha,corn (Zea mays); [21],0%
same,pest or weed control at 125 g/ha,[10]; [20],60%
same,pest or weed control at 31 g/ha,[10]; [21],50%
same,pest or weed control at 125 g/ha,[11]; [20],40%
same,pest or weed control at 31 g/ha,[11]; [21],0%
same,plant injury at 125 g/ha,[12]; [20],40%
same,plant injury at 31 g/ha,[12]; [21],0%
same,pest or weed control at 125 g/ha,[13]; [20],100%
same,pest or weed control at 31 g/ha,[13]; [21],70%
same,pest or weed control at 125 g/ha,[14]; [20],80%
same,pest or weed control at 31 g/ha,[14]; [21],70%
same,pest or weed control at 125 g/ha,[15]; [20],70%
same,pest or weed control at 31 g/ha,[15]; [21],30%
same,pest or weed control at 125 g/ha,Kochia (Kochia scoparia) [16]; [20],50%
same,pest or weed control at 31 g/ha,Kochia (Kochia scoparia) [16]; [21],0%
same,pest or weed control at 125 g/ha,[17]; [20],40%
same,pest or weed control at 31 g/ha,[17]; [21],0%
same,pest or weed control at 125 g/ha,[18]; [20],20%
same,pest or weed control at 31 g/ha,[18]; [21],0%
